Assays:
Assay type in all cases: in vivo
Echinochloa crus-galli [1] = assay: Test Example 1: herbicidal effect test by treatment of rice paddy soil (immediately after seeding); conditions: 120 g/10a active ingredient, dry weight vs untreated area, 14 days after treatment
Summary of the method: (§1)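 Pre-emergence paddy water application, 120 g a.i./10 ares, applied immediately post-seeding into ~3 cm flood; glasshouse; duplicate pots; dry weight at 14 d → % inhibition = (1 − treated/untreated) × 100.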

Scirpus juncoides [2] = assay: as above; conditions: 120 g/10a active ingredient, dry weight vs untreated area, 14 days after treatment
Summary of the method: as §1

[3] = tested on: broad leaf weeds (Lindernia pyxidaria and Monochoria vaginalis); assay: as above; conditions: 120 g/10a active ingredient, dry weight vs untreated area, 14 days after treatment
Summary of the method: as §1

Echinochloa crus-galli [4] = assay: Test Example 2: herbicidal effect test by treatment during growing period in paddy rice cultivation (seven days after seeding); conditions: 120 g/10a active ingredient, assessed 14 days after treatment, dry weight vs untreated area
Summary of the method: (§2)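 Sow 30 seeds per species (0–1 cm) into puddled, fertilized paddy soil; keep flooded ~3 cm in greenhouse. Day 7 after seeding: drop water-diluted emulsion, 120 g a.i./10 ares. Harvest 14 d post-treatment; compare dry weight with untreated pots (duplicate).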

Scirpus juncoides [5] = assay: as above; conditions: 120 g/10a active ingredient, assessed 14 days after treatment, dry weight vs untreated area
Summary of the method: as §2

[6] = tested on: broad leaf weeds (Lindernia pyxidaria and Monochoria vaginalis); assay: as above; conditions: 120 g/10a active ingredient, assessed 14 days after treatment, dry weight vs untreated area
Summary of the method: as §2

Amaranthus viridis [7] = assay: Test Example 3: herbicidal effect test by treatment of dry field farming soil (one day after seeding); conditions: 120 g/10a active ingredient, evaluated 14 days after treatment
Summary of the method: (§3)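 Weeds were seeded into the upper soil layer of alluvial field soil and, one day afterwards, the soil surface was sprayed with water-diluted emulsion delivering 120 g active ingredient per 10 ares. Mean plant dry weight relative to untreated pots after 14 days gave the herbicidal rate, tested in duplicate.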

Chenopodium album [8] = assay: as above; conditions: 120 g/10a active ingredient, evaluated 14 days after treatment
Summary of the method: as §3

Echinochloa crus-galli [9] = assay: as above; conditions: 120 g/10a active ingredient, evaluated 14 days after treatment
Summary of the method: as §3

southern crabgrass [10] = assay: as above; conditions: 120 g/10a active ingredient, evaluated 14 days after treatment
Summary of the method: as §3

Amaranthus viridis [11] = assay: Test Example 4: herbicidal effect test by treatment of leave and stem in dry field farming (seven days after seeding); conditions: 120 g/10a active ingredient; emulsion sprayed seven days after seeding; evaluated 14 days after treatment
Summary of the method: (§4)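 Twenty seeds per species were mixed into the top 1 cm of alluvial soil in 36 cm^2 pots; emulsions were sprayed seven days after seeding at 100 L per 10 ares (120 g active ingredient per 10 ares). Herbicidal rate (%) = {1 − treated/untreated mean dry weight} × 100, 14 days after treatment, duplicate.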

Chenopodium album [12] = assay: as above; conditions: 120 g/10a active ingredient; emulsion sprayed seven days after seeding; evaluated 14 days after treatment
Summary of the method: as §4

Echinochloa crus-galli [13] = assay: as above; conditions: 120 g/10a active ingredient; emulsion sprayed seven days after seeding; evaluated 14 days after treatment
Summary of the method: as §4

southern crabgrass [14] = assay: as above; conditions: 120 g/10a active ingredient; emulsion sprayed seven days after seeding; evaluated 14 days after treatment
Summary of the method: as §4

| SMILES | Herbicidal rate (%) Echinochloa crus-galli (Echinochloa crus-galli [1]) [%] | Herbicidal rate (%) Scirpus juncoides (Scirpus juncoides [2]) [%] | Herbicidal rate (%) Lindernia pyxidaria [3] [%] | Herbicidal rate (%) Monochoria vaginalis [3] [%] | Herbicidal rate (%) Echinochloa crus-galli (Echinochloa crus-galli [4]) [%] | Herbicidal rate (%) Scirpus juncoides (Scirpus juncoides [5]) [%] | Herbicidal rate (%) Lindernia pyxidaria [6] [%] | Herbicidal rate (%) Monochoria vaginalis [6] [%] | herbicidal rate, Amaranthus viridis (Amaranthus viridis [7]) [%] | herbicidal rate, Chenopodium album (Chenopodium album [8]) [%] | herbicidal rate, Echinochloa crus-galli (Echinochloa crus-galli [9]) [%] | herbicidal rate, southern crabgrass (southern crabgrass [10]) [%] | herbicidal effect (herbicidal rate), Amaranthus viridis (Amaranthus viridis [11]) [%] | herbicidal effect (herbicidal rate), Chenopodium album (Chenopodium album [12]) [%] | herbicidal effect (herbicidal rate), Echinochloa crus-galli (Echinochloa crus-galli [13]) [%] | herbicidal effect (herbicidal rate), southern crabgrass (southern crabgrass [14]) [%] |
| --- | --- | --- | --- | --- | --- | --- | --- | --- | --- | --- | --- | --- | --- | --- | --- | --- |
| COCC(C)n1oc(=O)c(Cc2ccccc2N(C(=O)c2ccccc2)S(=O)(=O)C(F)(F)F)c1C (centres unmarked) [Compound 1-479] | 90 | 90 | 90 | 90 | 90 | 90 | 90 | 90 | 90 | 90 | 90 | 90 | 40 | 40 | 90 | 90 |
| CCC(C)n1oc(=O)c(Cc2ccccc2N(C(=O)c2ccc(Cl)cc2)S(=O)(=O)C(F)(F)F)c1C (centres unmarked) [Compound 1-484] | 90 | 90 | 90 | 90 | 90 | 90 | 90 | 90 | 90 | 90 | 90 | 90 | 40 | 40 | 90 | 90 |
| CCC(C)n1oc(=O)c(Cc2ccccc2N(C(=O)c2ccc(C)cc2)S(=O)(=O)C(F)(F)F)c1C (centres unmarked) [Compound 1-494] | 90 | 90 | 90 | 90 | 90 | 90 | 90 | 90 | 90 | 90 | 90 | 90 | 40 | 40 | 90 | 90 |
| Cc1c(Cc2ccccc2N(C(=O)Cc2ccccc2)S(=O)(=O)C(F)(F)F)c(=O)on1C(C)(C)C [Compound 1-503] | 90 | 90 | 90 | 90 | 90 | 90 | 90 | 90 | 90 | 90 | 90 | 90 | 40 | 40 | 90 | 90 |
| CCC(C)n1oc(=O)c(Cc2ccccc2N(C(=O)Cc2ccccc2)S(=O)(=O)C(F)(F)F)c1C (centres unmarked) [Compound 1-504] | 90 | 90 | 90 | 90 | 90 | 90 | 90 | 90 | 90 | 90 | 90 | 90 | 40 | 40 | 90 | 90 |
| COCC(C)n1oc(=O)c(Cc2ccccc2N(C(=O)Cc2ccccc2)S(=O)(=O)C(F)(F)F)c1C (centres unmarked) [Compound 1-506] | 90 | 90 | 90 | 90 | 90 | 90 | 90 | 90 | 90 | 90 | 90 | 90 | 40 | 40 | 90 | 90 |
| CCC(C)n1oc(=O)c(Cc2ccccc2N(C(=O)C2CCCO2)S(=O)(=O)C(F)(F)F)c1C (centres unmarked) [Compound 1-522] | 90 | 90 | 90 | 90 | 90 | 90 | 90 | 90 | 90 | 90 | 90 | 90 | 40 | 40 | 90 | 90 |
| CCC(C)n1oc(=O)c(Cc2ccccc2N(C(=O)c2ccccn2)S(=O)(=O)C(F)(F)F)c1C (centres unmarked) [Compound 1-528] | 90 | 90 | 90 | 90 | 90 | 90 | 90 | 90 | 90 | 90 | 90 | 90 | 40 | 40 | 90 | 90 |

— patent US11109593B2, “Isoxazolin-5-one derivative and herbicide containing same as active ingredient” (HOKKO CHEMICAL INDUSTRY CO., LTD., priority 2017, dated 2021)
